# Data taken from US7579487B2 (dated 2009).
row,melting point [°C],Structure (SMILES)
1,188.5 to 189.5,CC(C)=C(NS(=O)(=O)c1ccc(C)cc1)C(=O)O
2,162.5 to 163.5,COc1ccc(S(=O)(=O)NC(C(=O)O)=C(C)C)cc1
3,172 to 173,CC(C)=C(NS(=O)(=O)c1ccc(F)cc1)C(=O)O
4,194 to 195,CC(C)=C(NS(=O)(=O)Cc1ccccc1)C(=O)O
5,104.5 to 106,CC(C)=C(NS(=O)(=O)CCCc1ccccc1)C(=O)O
6,221 to 222,Cc1ccc(S(=O)(=O)NC(C(=O)O)=C2CCCCC2)cc1
7,214 to 215,O=C(O)C(NS(=O)(=O)c1ccc(F)cc1)=C1CCCCC1
8,150.5 to 151.5,C/C=C(/NS(=O)(=O)c1ccc(C)cc1)C(=O)O
9,166.5 to 167.5,Cc1ccc(S(=O)(=O)N/C(=C/C(C)C)C(=O)O)cc1
10,116.5 to 117.5,COc1ccc(S(=O)(=O)NC(C(=O)O)C(C)C)cc1 (stereo not shown)
11,120 to 121.5,CC(C)[C@H](NS(=O)(=O)Cc1ccccc1)C(=O)O
12,151 to 152,CC(C)[C@H](NS(=O)(=O)CCCc1ccccc1)C(=O)O
13,182 to 184,Cc1ccc(S(=O)(=O)NC(C(=O)O)C2CCCCC2)cc1 (stereo not shown)
14,143 to 145,O=C(O)C(NS(=O)(=O)c1ccc(F)cc1)C1CCCCC1 (stereo not shown)
15,133.5 to 135.5,CCC(NS(=O)(=O)c1ccc(C)cc1)C(=O)O (stereo not shown)
16,122 to 123,Cc1ccc(S(=O)(=O)NC(CC(C)C)C(=O)O)cc1 (stereo not shown)
